Laboratory results: patent US11739098B2 (BRISTOL-MYERS SQUIBB COMPANY, priority 2017, dated 2023)

Assays:
Assay type in all cases: cell-based
human TLR7 = biological target: T1, human TLR7 (Homo sapiens, UniProt Q9NYK1); test: TLR7 inhibition reporter assay (HEK-Blue cells, SEAP reporter, gardiquimod stimulation); settings: HEK-Blue cells overexpressing human TLR7, SEAP reporter, gardiquimod 7.5 μM
T1 construct: host or cells: HEK-Blue cells (HEK293-derived reporter line)
T1 sequence (Q9NYK1 27-1049): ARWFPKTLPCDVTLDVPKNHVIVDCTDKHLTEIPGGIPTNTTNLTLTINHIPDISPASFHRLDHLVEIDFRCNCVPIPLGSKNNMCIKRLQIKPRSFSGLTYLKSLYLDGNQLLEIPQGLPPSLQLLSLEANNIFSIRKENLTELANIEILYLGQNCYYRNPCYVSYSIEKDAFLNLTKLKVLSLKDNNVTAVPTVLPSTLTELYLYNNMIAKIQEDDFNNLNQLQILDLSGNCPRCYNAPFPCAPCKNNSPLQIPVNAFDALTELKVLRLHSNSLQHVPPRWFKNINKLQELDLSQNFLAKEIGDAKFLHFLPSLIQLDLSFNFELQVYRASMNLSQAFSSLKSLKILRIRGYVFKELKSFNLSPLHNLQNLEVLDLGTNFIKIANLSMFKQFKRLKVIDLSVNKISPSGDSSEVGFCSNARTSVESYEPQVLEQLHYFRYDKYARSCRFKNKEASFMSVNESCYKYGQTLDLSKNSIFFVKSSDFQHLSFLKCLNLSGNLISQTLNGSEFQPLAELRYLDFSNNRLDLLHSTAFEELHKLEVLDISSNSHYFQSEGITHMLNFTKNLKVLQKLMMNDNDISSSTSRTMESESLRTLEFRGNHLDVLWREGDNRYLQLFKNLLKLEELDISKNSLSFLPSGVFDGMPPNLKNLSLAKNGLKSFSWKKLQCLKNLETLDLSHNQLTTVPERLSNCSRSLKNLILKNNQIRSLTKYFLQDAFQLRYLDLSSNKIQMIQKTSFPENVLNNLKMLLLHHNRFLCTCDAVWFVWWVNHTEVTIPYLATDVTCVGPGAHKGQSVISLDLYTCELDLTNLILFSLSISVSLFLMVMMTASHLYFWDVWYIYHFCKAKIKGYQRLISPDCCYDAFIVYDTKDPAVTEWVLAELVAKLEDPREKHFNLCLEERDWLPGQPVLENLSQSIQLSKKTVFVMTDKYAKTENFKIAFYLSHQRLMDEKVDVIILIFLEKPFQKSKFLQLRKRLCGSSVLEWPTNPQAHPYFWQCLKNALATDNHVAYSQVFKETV
Procedure, shortened: (§1)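 Agonists (final): TLR7 gardiquimod 7.5 μM; TLR8 R848 15.9 μM; TLR9 ODN2006 5 nM. HEK-Blue reporter cells, 30 min RT compound pre-incubation, 0.05 nM–50 μM dose range, 22 h at 37 °C, colorimetric SEAP detection medium. % inhibition relative to agonist+DMSO and known-inhibitor wells.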

human TLR8 = biological target: T2, human TLR8 (Homo sapiens, UniProt Q9NR97); test: TLR8 inhibition reporter assay (HEK-Blue cells, SEAP reporter, R848 stimulation); settings: HEK-Blue cells overexpressing human TLR8, SEAP reporter, R848 15.9 μM
T2 construct: host or cells: HEK-Blue cells (HEK293-derived reporter line)
T2 sequence (Q9NR97 27-1041): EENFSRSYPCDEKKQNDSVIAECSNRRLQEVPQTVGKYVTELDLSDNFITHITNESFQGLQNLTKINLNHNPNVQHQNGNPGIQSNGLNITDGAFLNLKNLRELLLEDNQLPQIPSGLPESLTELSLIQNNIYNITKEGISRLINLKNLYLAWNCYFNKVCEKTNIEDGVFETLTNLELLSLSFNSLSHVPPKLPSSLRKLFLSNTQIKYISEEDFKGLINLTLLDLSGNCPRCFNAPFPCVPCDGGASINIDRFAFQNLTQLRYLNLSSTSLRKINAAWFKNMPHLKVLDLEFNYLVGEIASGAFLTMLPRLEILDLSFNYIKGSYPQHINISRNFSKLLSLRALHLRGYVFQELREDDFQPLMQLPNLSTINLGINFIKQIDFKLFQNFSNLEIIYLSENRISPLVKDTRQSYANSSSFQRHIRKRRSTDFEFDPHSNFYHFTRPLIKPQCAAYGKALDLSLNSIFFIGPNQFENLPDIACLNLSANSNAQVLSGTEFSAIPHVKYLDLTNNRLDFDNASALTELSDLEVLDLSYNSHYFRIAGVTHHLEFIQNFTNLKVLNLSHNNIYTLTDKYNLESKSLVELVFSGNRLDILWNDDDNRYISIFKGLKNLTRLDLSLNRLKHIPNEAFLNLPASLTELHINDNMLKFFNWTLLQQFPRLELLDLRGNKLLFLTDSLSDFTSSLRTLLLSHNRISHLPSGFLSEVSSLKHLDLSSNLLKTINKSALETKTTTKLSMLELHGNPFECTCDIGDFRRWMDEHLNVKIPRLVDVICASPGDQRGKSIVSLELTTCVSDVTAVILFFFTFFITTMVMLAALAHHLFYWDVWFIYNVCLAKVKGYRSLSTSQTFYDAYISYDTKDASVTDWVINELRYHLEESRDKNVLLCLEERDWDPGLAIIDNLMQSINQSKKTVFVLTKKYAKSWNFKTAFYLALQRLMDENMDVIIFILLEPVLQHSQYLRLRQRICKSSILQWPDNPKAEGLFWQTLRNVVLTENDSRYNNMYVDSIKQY
Procedure, shortened: as §1

human TLR9 = biological target: T3, human TLR9 (Homo sapiens, UniProt Q9NR96); test: TLR9 inhibition reporter assay (HEK-Blue cells, SEAP reporter, ODN2006 stimulation); settings: HEK-Blue cells overexpressing human TLR9, SEAP reporter, ODN2006 5 nM
T3 construct: host or cells: HEK-Blue cells (HEK293-derived reporter line)
T3 sequence (Q9NR96 26-1032): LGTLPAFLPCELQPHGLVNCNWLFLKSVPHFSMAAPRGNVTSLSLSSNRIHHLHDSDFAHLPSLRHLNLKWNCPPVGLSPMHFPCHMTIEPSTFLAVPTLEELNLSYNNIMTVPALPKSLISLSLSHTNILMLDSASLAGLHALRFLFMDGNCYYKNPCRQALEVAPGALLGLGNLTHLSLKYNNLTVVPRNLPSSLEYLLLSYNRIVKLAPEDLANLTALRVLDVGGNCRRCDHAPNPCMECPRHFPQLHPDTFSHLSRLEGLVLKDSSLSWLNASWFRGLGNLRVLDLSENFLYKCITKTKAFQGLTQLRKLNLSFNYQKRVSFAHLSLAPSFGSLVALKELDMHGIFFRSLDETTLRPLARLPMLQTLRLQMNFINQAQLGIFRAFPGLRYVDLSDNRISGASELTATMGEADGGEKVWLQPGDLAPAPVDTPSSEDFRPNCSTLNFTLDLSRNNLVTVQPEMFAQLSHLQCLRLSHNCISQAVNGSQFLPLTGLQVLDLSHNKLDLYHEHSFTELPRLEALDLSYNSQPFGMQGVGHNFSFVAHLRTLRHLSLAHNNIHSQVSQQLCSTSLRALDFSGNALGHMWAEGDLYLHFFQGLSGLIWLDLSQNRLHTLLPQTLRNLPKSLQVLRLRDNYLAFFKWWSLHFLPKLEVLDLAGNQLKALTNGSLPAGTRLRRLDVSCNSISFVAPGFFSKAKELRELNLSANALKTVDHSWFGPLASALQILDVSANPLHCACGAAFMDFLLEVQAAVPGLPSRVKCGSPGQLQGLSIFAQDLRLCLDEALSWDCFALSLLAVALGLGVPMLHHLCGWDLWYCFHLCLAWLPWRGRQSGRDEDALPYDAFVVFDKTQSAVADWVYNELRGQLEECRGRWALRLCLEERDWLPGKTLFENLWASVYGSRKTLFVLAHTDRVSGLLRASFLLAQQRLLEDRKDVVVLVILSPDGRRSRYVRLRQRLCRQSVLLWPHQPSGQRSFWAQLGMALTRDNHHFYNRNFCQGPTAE
Procedure, shortened: as §1

Compound: CC(C)c1c(-c2ccnc3[nH]ncc23)[nH]c2ccc(C3CCN(C(=O)C4CCCNC4)CC3)cc12 (stereo not drawn) [Example 636, (4-(3-isopropyl-2-(1H-pyrazolo[3,4-b]pyridin-4-yl)-1H-indol-5-yl)piperidin-1-yl)(piperidin-3-yl)methanone]
- IC50 (human TLR7): < 0.1 µM
- IC50 (human TLR8): < 0.1 µM
- IC50 (human TLR9): 0.1 to 1 µM

Compound: Cc1nc2c(-c3[nH]c4ccc(C5CCNCC5)cc4c3C(C)C)ccc(C)n2n1 [Example 151, 8-(3-isopropyl-5-(piperidin-4-yl)-1H-indol-2-yl)-2,5-dimethyl-[1,2,4]triazolo[1,5-a]pyridine]
- IC50 (human TLR7): 0.1 to 1 µM
- IC50 (human TLR8): 0.1 to 1 µM
- IC50 (human TLR9): 0.1 to 1 µM

Compound: Cc1nc2cc(-c3[nH]c4ccc(C5CCN(C6COC6)CC5)cc4c3C(C)C)cc(C)c2o1 [Example 709, 5-(3-isopropyl-5-(1-(oxetan-3-yl)piperidin-4-yl)-1H-indol-2-yl)-2,7-dimethylbenzo[d]oxazole]
- IC50 (human TLR7): 0.1 to 1 µM
- IC50 (human TLR8): 1 to 50 µM
- IC50 (human TLR9): 1 to 50 µM

Compound: CCc1c(-c2cnc3cn[nH]c3c2)[nH]c2ccc(C3CCNCC3)cc12 [Example 62, 6-(3-ethyl-5-(piperidin-4-yl)-1H-indol-2-yl)-1H-pyrazolo[4,3-b]pyridine]
- IC50 (human TLR7): 0.1 to 1 µM
- IC50 (human TLR8): 0.1 to 1 µM
- IC50 (human TLR9): 0.1 to 1 µM

Compound: CC(C)c1c(-c2cn(C)c3ncncc23)[nH]c2ccc(C3CCN(C(=O)CN(C)C)CC3)cc12 [Example 456, 2-(dimethylamino)-1-(4-(3-isopropyl-2-(7-methyl-7H-pyrrolo[2,3-d]pyrimidin-5-yl)-1H-indol-5-yl)piperidin-1-yl)ethan-1-one]
- IC50 (human TLR7): < 0.1 µM
- IC50 (human TLR8): < 0.1 µM
- IC50 (human TLR9): 1 to 50 µM

Compound: CC(C)c1c(-c2ccc3cncn3c2)[nH]c2ccc(C3CCNCC3)cc12 [Example 183, 6-(3-isopropyl-5-(piperidin-4-yl)-1H-indol-2-yl)imidazo[1,5-a]pyridine]
- IC50 (human TLR7): 0.1 to 1 µM
- IC50 (human TLR8): 0.1 to 1 µM
- IC50 (human TLR9): 1 to 50 µM

Compound: CC(C)c1c(-c2ccc(C#N)c3ncccc23)[nH]c2ccc(C3CCN(CCS(C)(=O)=O)CC3)cc12 [Example 796, 5-(3-isopropyl-5-(1-(2-(methylsulfonyl)ethyl)piperidin-4-yl)-1H-indol-2-yl)quinoline-8-carbonitrile]
- IC50 (human TLR7): < 0.1 µM
- IC50 (human TLR8): < 0.1 µM
- IC50 (human TLR9): 1 to 50 µM

Compound: CCOc1cc(-c2[nH]c3ccc(C4CCNCC4)cc3c2C(C)C)cc2ncnn12 [Example 157, 5-ethoxy-7-(3-isopropyl-5-(piperidin-4-yl)-1H-indol-2-yl)-[1,2,4]triazolo[1,5-a]pyridine]
- IC50 (human TLR7): < 0.1 µM
- IC50 (human TLR8): < 0.1 µM
- IC50 (human TLR9): 0.1 to 1 µM

Compound: CC(C)c1c(-c2cn3cnnc3c(O)n2)[nH]c2ccc(C3CCNCC3)cc12 [Example 34, 6-(3-isopropyl-5-(piperidin-4-yl)-1H-indol-2-yl)-[1,2,4]triazolo[4,3-a]pyrazin-8-ol]
- IC50 (human TLR7): 1 to 50 µM
- IC50 (human TLR8): > 3.13 µM
- IC50 (human TLR9): 1 to 50 µM

Compound: Cc1ncc(CN2CCC(c3ccc4[nH]c(-c5cn(C)c6ncccc56)c(C(C)C)c4c3)CC2)cn1 [Example 876, 3-(3-isopropyl-5-(1-((2-methylpyrimidin-5-yl)methyl)piperidin-4-yl)-1H-indol-2-yl)-1-methyl-1H-pyrrolo[2,3-b]pyridine]
- IC50 (human TLR7): < 0.1 µM
- IC50 (human TLR8): < 0.1 µM
- IC50 (human TLR9): 1 to 50 µM

Compound: Cc1cc(-c2[nH]c3ccc(C4CCNCC4)cc3c2C(C)C)cn2cc(C(=O)N(C)C)nc12 [Example 265, 6-(3-isopropyl-5-(piperidin-4-yl)-1H-indol-2-yl)-N,N,8-trimethylimidazo[1,2-a]pyridine-2-carboxamide]
- IC50 (human TLR7): < 0.1 µM
- IC50 (human TLR8): < 0.1 µM
- IC50 (human TLR9): 1 to 50 µM

Compound: CNCC(=O)N1CCC(c2ccc3[nH]c(-c4cc(OC)n5ncnc5c4)c(C(C)C)c3c2)CC1 [Example 553, 1-(4-(3-isopropyl-2-(5-methoxy-[1,2,4]triazolo[1,5-a]pyridin-7-yl)-1H-indol-5-yl)piperidin-1-yl)-2-(methylamino)ethan-1-one]
- IC50 (human TLR7): < 0.1 µM
- IC50 (human TLR8): < 0.1 µM
- IC50 (human TLR9): 0.1 to 1 µM

Compound: Cc1cc2ncnn2nc1-c1[nH]c2ccc(C3CCN(C(=O)CN(C)C)CC3)cc2c1C(C)C [Example 455, 2-(dimethylamino)-1-(4-(3-isopropyl-2-(7-methyl-[1,2,4]triazolo[1,5-b]pyridazin-6-yl)-1H-indol-5-yl)piperidin-1-yl)ethan-1-one]
- IC50 (human TLR7): < 0.1 µM
- IC50 (human TLR8): < 0.1 µM
- IC50 (human TLR9): 1 to 50 µM

Compound: CC(C)c1c(-c2ccnc3[nH]ncc23)[nH]c2ccc(C3CCN(Cc4ccc(OCCCN(C)C)cc4)CC3)cc12 [Example 965, 3-(4-((4-(3-isopropyl-2-(1H-pyrazolo[3,4-b]pyridin-4-yl)-1H-indol-5-yl)piperidin-1-yl)methyl)phenoxy)-N,N-dimethylpropan-1-amine]
- IC50 (human TLR7): < 0.1 µM
- IC50 (human TLR8): < 0.1 µM
- IC50 (human TLR9): 0.1 to 1 µM
